This note sets out measurements from patent US4657897A, “N^6 -substituted adenosines for treating pain” (Warner-Lambert Company, priority 1985, dated 1987).

pIC50: −log10 of the molar value.

The target of one assay is T1, adenosine A1 receptor (Rattus norvegicus, UniProt P25099).
T1 construct: Whole brain minus cerebellum and brainstem from male Long Evans rats; from tissue; host or cells: rat whole brain minus cerebellum and brainstem (male Long Evans), membranes
T1 sequence (P25099 1-326): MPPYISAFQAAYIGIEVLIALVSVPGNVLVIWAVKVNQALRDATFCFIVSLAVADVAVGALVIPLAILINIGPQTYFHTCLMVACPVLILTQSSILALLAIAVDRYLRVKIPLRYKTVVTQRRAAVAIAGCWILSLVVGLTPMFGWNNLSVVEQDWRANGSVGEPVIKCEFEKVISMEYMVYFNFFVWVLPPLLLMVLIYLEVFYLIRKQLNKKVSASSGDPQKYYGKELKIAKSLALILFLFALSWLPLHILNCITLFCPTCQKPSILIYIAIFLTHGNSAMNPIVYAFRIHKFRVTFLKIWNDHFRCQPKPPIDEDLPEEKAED
The assay is described as follows: Adenosine Receptor Binding--A1 Receptor Affinity (RBA1), [3H]-CHA binding, rat whole brain membranes. Also noted: species or system rat (male Long Evans). Conditions: 1.0 nM [3H]-CHA, 25° C., 1 h. On the procedure:
Adenosine Receptor Binding--A1 Receptor Affinity (RBA1)
Whole brain minus cerebellum and brainstem from male Long Evans rats (150-200 g) was homogenized in 30 volumes of ice-cold 0.05M Tris-HCl buffer pH 7.7 using a Brinkman Polytron PT-10, (setting number 6 for 20 seconds) and centrifuged for ten minutes at 20,000×g (Sorvall RC-2), 4° C. The supernatant was discarded, and the pellet was resuspended and centrifuged as before. The pellet was resuspended in 20 ml Tris-HCl buffer containing two International Units/ml of adenosine deaminase (Sigma type III from calf intestinal mucosa), incubated at 37° C. for 30 minutes, then subsequently at 0° C. for ten minutes. The homogenate was again centrifuged, and the final pellet was resuspended in ice-cold 0.05M Tris-HCl buffer pH 7.7 to a concentration of 20 mg/ml original wet tissue weight and used immediately.
Tissue homogenate (10 mg/ml) was incubated in 0.05M Tris-HCl buffer pH 7.7 containing 1.0 nM [^3 H]-N^6 -cyclohexyladenosine[^3 H]-CHA) with or without test agents in triplicate for one hour at 25° C. Incubation volume was 2 ml. Unbound [^3 H]-CHA was separated by rapid filtration under reduced pressure through Whatman glass fiber (GF/B) filters. The filters were rinsed three times with 5 ml of ice cold 0.05M Tris-HCl buffer pH 7.7. The radio-labeled ligand retained on the filter was measured by liquid scintillation spectrophotometry after shaking the filters for one hour or longer on a mechanical shaker in 10 ml of Beckman Ready-Solv HP scintillation cocktail.
Nonspecific binding was defined as the binding which occurred in the presence of 1 mM theophylline. The concentration of test agent which inhibited 50% of the specific binding (IC50) was determined by nonlinear computer curve fit. The Scatchard plot was calculated by linear regression of the line obtained by plotting the amount of radioligand bound (pmoles/gram of tissue) [formula] Since the amount of radioligand bound was a small fraction of the total amount added, free radioligand was defined as the concentration (nM) of radioligand added to the incubation mixture. The Hill coefficient was calculated by linear regression of the line obtained by plotting the log of the bound radioligand vs the log of the [formula] The maximal number of binding sites (Bmax) was calculated from the Scatchard plot.

A further assay addresses T2, adenosine A2 receptor (Rattus norvegicus, UniProt P30543).
T2 construct: 5 mg original tissue weight of rat weight of rat striatal membranes; tissue Pel-Freez (Rogers, Ark.) for the brains; host or cells: rat striatum (Sprague-Dawley; Long-Evans gave essentially identical results), membranes
Description: Adenosine Receptor Binding--A2 Receptor Affinity (RBA2), [3H]NECA binding, rat striatal membranes. Also noted: species or system rat (mixed sex Sprague-Dawley; male Long-Evans). The conditions noted are these: 4 nM [3H]NECA, 50 nM N6-cyclopentyladenosine, 25° C., 60 min. As to the method:
Adenosine Receptor Binding--A2 Receptor Affinity (RBA2)
Brains from 200-500 g mixed sex Sprague-Dawley rats were purchased from Pel-Freez (Rogers, Ark.). […] Brains were thawed and then kept on ice while the striata were dissected out. Striata were disrupted in 10 vol of ice-cold 50 mM Tris.HCl (pH 7.7 at 25° C., pH 8.26 at 5° C.) (Tris) for 30 seconds in a Polytron PT-10 (Brinkmann) at setting 5. The suspension was centrifuged at 50,000 xg for ten minutes, the supernatant discarded, the pellet resuspended in 10 vol ice-cold Tris as above, recentrifuged, resuspended at 1 g/5 ml, and stored in plastic vials at -70° C. […] When needed, tissue was thawed at room temperature, disrupted in a Polytron, and kept on ice until used.
Test compounds were dissolved at 10 mM in dimethylsulfoxide on the same day as the experiment, and diluted in dimethylsulfoxide to 100× the final incubation concentration. […] [^3 H]NECA was diluted to 40 nM in Tris. […] After all additions, the rack of tubes was vortexed, and the tubes were then incubated for 60 min at 25° C. in a shaking water bath. The rack of tubes was vortexed an additional time halfway through the incubation.
Incubations were terminated by filtration through 2.4 cm GF/B filters under reduced pressure. Each tube was filtered as follows: the contents of the tube were poured onto the filter, 4 ml of ice-cold Tris were added to the tube and the contents poured onto the filter, and the filter was washed twice with 4 ml of ice-cold Tris. The filtration was complete in about twelve seconds. Filters were put in scintillation vials, 8 ml of Formula 947 scintillation fluid added, and the vials left overnight, shaken, and counted in a liquid scintillation counter at 40% efficiency.
The IC50 was calculated by weighted nonlinear least squares curve-fitting to the mass-action equation. [formula] where Y is cpm bound
T is cpm total binding without drug
S is cpm specific binding without drug
D is the concentration of drug
K is the IC50 of the drug
Weighting factors were calculated under the assumption that the standard deviation was proportional to the predicted value of Y. Nonspecific binding was treated as a very large (infinite) concentration of drug in the computer analysis.

The nature of assay [1]: Mouse Activity and Screen Test (MAST), screen test failure (ST). It counts as in vivo, mouse (Swiss-Webster, male). Conditions: Mus musculus, ip; lowest dose at which an A rating is achieved; screen test; intraperitoneal, 1 h prior to testing; read-out: MAST ST LAD. As to the method: Treatments are administered intraperitoneally one hour prior to testing. […] Compounds are dissolved or suspended in 0.2% Methocel. Control animals are injected with Methocel.
The compounds are identified in the Examples.

T2 sequence (P30543 whole entry): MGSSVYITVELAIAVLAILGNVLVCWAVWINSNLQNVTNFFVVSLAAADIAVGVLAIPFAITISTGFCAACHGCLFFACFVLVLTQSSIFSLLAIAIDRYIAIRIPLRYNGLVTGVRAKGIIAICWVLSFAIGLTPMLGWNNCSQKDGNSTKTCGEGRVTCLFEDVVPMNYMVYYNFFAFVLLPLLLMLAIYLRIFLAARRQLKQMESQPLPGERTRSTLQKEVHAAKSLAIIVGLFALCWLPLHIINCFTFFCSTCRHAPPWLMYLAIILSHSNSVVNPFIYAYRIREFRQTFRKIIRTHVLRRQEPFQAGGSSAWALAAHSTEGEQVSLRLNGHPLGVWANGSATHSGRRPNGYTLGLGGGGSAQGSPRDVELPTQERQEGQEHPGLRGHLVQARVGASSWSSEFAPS

Turning to `CC(CNc1nc(N)nc2c1ncn2[C@@H]1O[C@H](CO)[C@@H](O)[C@H]1O)(c1ccccc1)c1ccccc1` [Example 21, N^6-(2,2-Diphenylpropyl)-2-aminoadenosine], the pIC50 (as a rule, −log10 of the IC50, conventionally taken in molar units) on adenosine A1 receptor was 6.55; at adenosine A2 receptor, 6.33. Further, the minimal effective dose in assay [1] was greater than 100 mg/kg.

As for `OC[C@H]1O[C@@H](n2cnc3c(NCC(O)(c4ccccc4)c4ccccc4)ncnc32)[C@H](O)[C@@H]1O` [Example 22, N^6-(2,2-Diphenyl-2-hydroxyethyl)adenosine], the results for the pIC50 at adenosine A1 receptor and at adenosine A2 receptor were 7.92 and 7.03, respectively. Also, in assay [1], the minimal effective dose is 100 mg/kg.

Regarding `Nc1nc(NCC(O)(c2ccccc2)c2ccccc2)c2ncn([C@@H]3O[C@H](CO)[C@@H](O)[C@H]3O)c2n1` [Example 23, N^6-(2,2-Diphenyl-2-hydroxyethyl)-2-aminoadenosine], the pIC50 at adenosine A1 receptor was 7.16; on adenosine A2 receptor it was 6.53. The minimal effective dose in assay [1] is greater than 100 mg/kg.

On to `COC(=O)C(CNc1ncnc2c1ncn2[C@@H]1O[C@H](CO)[C@@H](O)[C@H]1O)(c1ccccc1)c1ccccc1` [Example 24, N^6-(2-Carbomethoxy-2,2-diphenylethyl)adenosine], for which the pIC50 is 7.10 at adenosine A1 receptor and 5.34 at adenosine A2 receptor. The minimal effective dose in assay [1] was greater than 30 mg/kg.

`CC(=O)OC[C@H]1O[C@@H](n2cnc3c(NCC(c4ccccc4)c4ccccc4)ncnc32)[C@H](OC(C)=O)[C@@H]1OC(C)=O` [Example 25, 2',3',5'-Tri-O-acetyl-N^6-(2,2-diphenylethyl)adenosine]: the values for the pIC50 at adenosine A1 receptor and at adenosine A2 receptor were 7.28 and 6.78, respectively. For the same compound, in assay [1], the minimal effective dose is greater than 100 mg/kg.

In the case of `O=C(OC[C@H]1O[C@@H](n2cnc3c(NCC(c4ccccc4)c4ccccc4)ncnc32)[C@H](OC(=O)c2ccccc2)[C@@H]1OC(=O)c1ccccc1)c1ccccc1` [Example 26, 2',3',5'-Tri-O-benzoyl-N^6-(2,2-diphenylethyl)adenosine], the negative logarithm of the IC50 (pIC50) on adenosine A1 receptor is 5.91; at adenosine A2 receptor, 5.42. The minimal effective dose in assay [1] was greater than 100 mg/kg.

With `CC(=O)OC[C@H]1O[C@@H](n2cnc3c(NCC(c4ccccc4)c4ccccc4)nc(Cl)nc32)[C@H](OC(C)=O)[C@@H]1OC(C)=O` [Example 27, 2',3',5'-Tri-O-acetyl-N^6-(2,2-diphenylethyl)-2-chloroadenosine], the pIC50 at adenosine A1 receptor is 4.51; at adenosine A2 receptor it was 5.17. Further, the minimal effective dose in assay [1] was greater than 100 mg/kg.

On to `CC1(C)O[C@@H]2[C@H](O1)[C@@H](CO)O[C@H]2n1cnc2c(NCC(c3ccccc3)c3ccccc3)ncnc21` [Example 29, 2',3'-O-Isopropylidene-N^6-(2,2-diphenylethyl)adenosine], for which the pIC50 at adenosine A1 receptor is 6.62; on adenosine A2 receptor it was 6.04. Besides, the minimal effective dose in assay [1] is greater than 100 mg/kg.
